# Results reported in patent US8877208B2 (priority 2008, dated 2014).
# “Also recorded” adds a separate entry of the source.
# Tested on: virus
substance,measurement,value
TRITON-X100,biocidal activity against virus (ability to inactivate a virus),less biocidal activity; also recorded: less ability to inactivate a virus
